Patent US8889705B2, “Noscapine analogs and their use in treating cancers” (Emory University, priority 2007, dated 2014)
Where two headings read alike, the source gives them in different places.

Assays:
tubulin [1] = molecular target: T1, tubulin; assay: Tubulin binding assay (fluorescence titration, quenching of intrinsic tubulin fluorescence); set-up: species or system mammalian; settings: 2 μM tubulin, 45 min at 37° C., double reciprocal plot; read-out: dissociation constant (Kd) for binding to tubulin
T1 construct: other: 2 μM tubulin, 45 min at 37° C., double reciprocal plot; rate and extent of tubulin polymerization; other: 25 μM or 100 μM
Procedure: Fluorescence titration for determining the tubulin binding parameters was performed as described previously (Gupta and Panda, 2002). In brief, 9-nitro-nos (0-100 μM) was incubated with 2 μM tubulin in 25 mM PIPES, pH 6.8, 3 mM MgSO4 and 1 mM EGTA for 45 min at 37° C. The relative intrinsic fluorescence intensity of tubulin was then monitored in a JASCO FP-6500 spectrofluorometer (JASCO, Tokyo, Japan) using a cuvette of 0.3-cm path length, and the excitation wavelength was 295 nm. The fluorescence emission intensity of 9-nitro-nos at this excitation wavelength was negligible. A 0.3-cm path-length cuvette was used to minimize the inner filter effects caused by the absorbance of 9-nitro-nos at higher concentration ranges. In addition, the inner filter effects were corrected using a formula Fcorrected=Fobserved·antilog [(Aex+Aem)/2], where Aex is the absorbance at the excitation wavelength and Aem is the absorbance at the emission wavelength. The dissociation constant (Kd) was determined by the formula: 1/B=Kd/[free ligand]+1, where B is the fractional occupancy and [free ligand] is the concentration of free noscapine or 9-nitro-nos. The fractional occupancy (B) was determined by the formula B=ΔF/ΔFmax, where ΔF is the change in fluorescence intensity when tubulin and its ligand are in equilibrium and ΔFmax is the value of maximum fluorescence change when tubulin is completely bound with its ligand. ΔFmax was calculated by plotting 1/ΔF versus 1/ligand using total ligand concentration as the first estimate of free ligand concentration.
Fluorescence titration for determining the tubulin binding parameters was performed as described previously. In brief, 9-F-nos, 9-Cl-nos, 9-Br-nos or 9-I-nos (0-100 μM) was incubated with 2 μM tubulin in 25 mM PIPES, pH 6.8, 3 mM MgSO4, and 1 mM EGTA for 45 min at 37° C. The relative intrinsic fluorescence intensity of tubulin was then monitored in a JASCO FP-6500 spectrofluorometer (JASCO, Tokyo, Japan) using a cuvette of 0.3-cm path length, and the excitation wavelength was 295 nm. The fluorescence emission intensity of noscapine and its derivatives at this excitation wavelength was negligible. A 0.3-cm path-length cuvette was used to minimize the inner filter effects caused by the absorbance of these agents at higher concentration ranges. In addition, the inner filter effects were corrected using a formula F corrected=F observe·antilog [(Aex+Aem)/2], where Aex is the absorbance at the excitation wavelength and Aem is the absorbance at the emission wavelength. The dissociation constant (Kd) was determined by the formula: 1/B=Kd/[free ligand]+1, where B is the fractional occupancy and [free ligand] is the concentration of 9-F-nos, 9-Cl-nos, 9-Br-nos or 9-I-nos. The fractional occupancy (B) was determined by the formula B=ΔF/ΔFmax, where ΔF is the change in fluorescence intensity when tubulin and its ligand are in equilibrium and ΔFmax is the value of maximum fluorescence change when tubulin is completely bound with its ligand. ΔFmax was calculated by plotting 1/ΔF versus 1/[free ligand].

CEM cells = assay: In vitro cell proliferation MTS assay; assay type: cell-based; settings: Homo sapiens, CCRF-CEM, 72 hours
Procedure: (§1) Suspension cells (CEM, CEMNLB100 and CEM/VM-1-5) were cultured in RPMI-1640 media containing 10% FBS and then seeded into 96-well plates at a density of 5×10^3 cells per well and were treated with increasing gradient concentrations of 9-nitro-nos for 72 hours. Measurement of cell proliferation was performed colorimetrically by 3-(4,5-dimethylthiazol-2-yl)-5-(3-carboxymethoxyphenyl)-2-(4-sulphophenyl)-2H-tetrazolium, inner salt (MTS) assay, using the CellTiter96 AQueous One Solution Reagent (Promega, Madison, Wis.). Cells were exposed to MTS for 3 hours and absorbance was measured using a microplate reader (Molecular Devices, Sunnyvale, Calif.) at an optical density (OD) of 490 nm. The percentage of cell survival as a function of drug concentration for both the assays was then plotted to determine the IC50 value, which stands for the drug concentration needed to prevent cell proliferation by 50%.
as §1, with “(CEM)” for “(CEM, CEMNLB100 and CEM/VM-1-5)”, “were” for “were cultured in RPMI-1640 media containing 10% FBS and then”, “increasing” for “increasing gradient”, “all halogenated analogs” for “9-nitro-nos”

MCF-7 cells [2] = assay: Sulforhodamine B cell proliferation assay; assay type: cell-based, human; settings: for IC50: Homo sapiens, MCF7, 72 h, MCF-7, 72 hours, SRB
Procedure: (§2) Sulforhodamine B (SRB) assay: The cell proliferation assay was performed in 96-well plates as described previously. Adherent cells (MCF-7 and MDA-MB-231) were seeded in 96-well plates at a density of 5×10^3 cells per well. They were treated with increasing concentrations of the halogenated analogs the next day while in log-phase growth. After 72 hours of drug treatment, cells were fixed with 50% trichloroacetic acid and stained with 0.4% sulforhodamine B dissolved in 1% acetic acid. After 30 minutes, cells were then washed with 1% acetic acid to remove the unbound dye. The protein-bound dye was extracted with 10 mM Tris base to determine the optical density at 564-nm wavelength.

MDA-MB-231 cells [3] = assay: DAPI staining, cell morphology by fluorescence microscopy; assay type: cell-based, human; settings: 25 μM, 72 hours
Procedure: Cell morphology was evaluated by fluorescence microscopy following DAPI staining (Vectashield, Vector Labs, Inc., Burlingame, Calif.). MDA-MB-231 cells were grown on poly-L-lysine coated coverslips in 6-well plates and were treated with the halogenated analogs at 25 μM for 72 hours. After incubation, coverslips were fixed in cold methanol and washed with PBS, stained with DAPI, and mounted on slides. Images were captured using a BX60 microscope (Olympus, Tokyo, Japan) with an 8-bit camera (Dage-MTI, Michigan City, Ind.) and IP Lab software (Scanalytics, Fairfax, Va.). Apoptotic cells were identified by features characteristic of apoptosis (e.g. nuclear condensation, formation of membrane blebs and apoptotic bodies).

MDA-MB-231 cells [4] = assay: Sulforhodamine B cell proliferation assay; assay type: cell-based; settings: Homo sapiens; MDA-MB-231, 72 hours, SRB
Procedure: as §2

MCF-7 cells [5] = assay: Cell cycle analysis (propidium iodide, flow cytometry); assay type: cell-based, human; settings: for G0/G1 / G2/M / S / Sub-G1: MCF-7, 25 μM, mean ± S.E.M.; for percent sub-G1 cells compared with noscapine: MCF-7, lower doses (5 μM and 10 μM), 72 hours
Procedure: The flow cytometric evaluation of the cell cycle status was performed as described previously. Briefly, 2×10^6 cells were centrifuged, washed twice with ice-cold PBS, and fixed in 70% ethanol. Tubes containing the cell pellets were stored at 4° C. for at least 24 hours. Cells were then centrifuged at 1000×g for 10 min and the supernatant was discarded. The pellets were washed twice with 5 ml of PBS and then stained with 0.5 ml of propidium iodide (0.1% in 0.6% Triton-X in PBS) and 0.5 ml of RNase A (2 mg/ml) for 45 minutes in dark. Samples were then analyzed on a FACSCalibur flow cytometer (Beckman Coulter Inc., Fullerton, Calif.).

tubulin [6] = molecular target: T1, tubulin; settings: values with literature reference [18], [12], [43]; read-out: dissociation constant (Kd) for binding to tubulin; cited from earlier work

Row | Kd (tubulin [1]) [µM] | IC50 (MCF-7 cells [2]) [µM] | IC50 (MDA-MB-231 cells [4]) [µM] | Compound | IC50 (CEM cells) [µM] | nuclear morphology (features of apoptotic cells), DAPI (MDA-MB-231 cells [3]) | G0/G1 (MCF-7 cells [5]; 0 h) [%] | G2/M (MCF-7 cells [5]; 0 h) [%] | S (MCF-7 cells [5]; 0 h) [%] | Sub-G1 (MCF-7 cells [5]; 0 h) [%] | G0/G1 (MCF-7 cells [5]; 24 h) [%] | G2/M (MCF-7 cells [5]; 24 h) [%] | S (MCF-7 cells [5]; 24 h) [%] | Sub-G1 (MCF-7 cells [5]; 24 h) [%] | G0/G1 (MCF-7 cells [5]; 48 h) [%] | G2/M (MCF-7 cells [5]; 48 h) [%] | S (MCF-7 cells [5]; 48 h) [%] | Sub-G1 (MCF-7 cells [5]; 48 h) [%] | G0/G1 (MCF-7 cells [5]; 72 h) [%] | G2/M (MCF-7 cells [5]; 72 h) [%] | S (MCF-7 cells [5]; 72 h) [%] | other results
1 | 81 ± 8 | 3.3 ± 0.8 | 8.2 ± 0.6 | COc1ccc2c(c1OC)C(=O)O[C@@H]2[C@H]1c2c(c(F)c3c(c2OC)OCO3)CCN1C [9-F-nos, (S)-6,7-dimethoxy-3-((R)-4-methoxy-6-methyl-9-fluoro-5,6,7,8-tetrahydro-[1,3]dioxolo[4,5-g]isoquinolin-5-yl)isobenzofuran-1(3H)-one] | 2.3 ± 0.7 | condensed chromosomes, numerous fragmented micronuclei, and apoptotic bodies are evident | 67.7 ± 5.6 | 18.5 ± 2.2 | 11.9 ± 1.5 | 0.2 ± 0.04 | 10.8 ± 2.4 | 65.9 ± 4.4 | 3.8 ± 1.1 | 6.8 ± 2.1 | 7.9 ± 2.8 | 43.7 ± 2.9 | 3.5 ± 0.8 | 34.5 ± 2.5 | 5.2 ± 2.2 | 34.4 ± 3.4 | 3.6 ± 1.5 | Sub-G1 (MCF-7 cells [5]; 72 h): 48.6 ± 3.3%; percent sub-G1 cells compared with noscapine (MCF-7 cells [5]): higher
2 | 54 ± 9.1 | 1 ± 0.2 | 3.3 ± 0.4 | COc1ccc2c(c1OC)C(=O)O[C@@H]2[C@H]1c2c(c(Br)c3c(c2OC)OCO3)CCN1C [9-Br-nos, (S)-6,7-dimethoxy-3-((R)-4-methoxy-6-methyl-9-bromo-5,6,7,8-tetrahydro-[1,3]dioxolo[4,5-g]isoquinolin-5-yl)isobenzofuran-1(3H)-one] | 1.9 ± 0.2 | condensed chromosomes, numerous fragmented micronuclei, and apoptotic bodies are evident | 53.3 ± 2.8 | 28.9 ± 4.4 | 12.7 ± 1.8 | 0.2 ± 0.1 | 10.4 ± 1.8 | 61.9 ± 3.6 | 3.4 ± 1.2 | 6.9 ± 2.4 | 6.5 ± 2.5 | 43.8 ± 3.4 | 2.8 ± 0.7 | 35.1 ± 3.5 | 4.6 ± 2.1 | 33.7 ± 3.5 | 2.4 ± 1.6 | Kd (tubulin [6]): 54 ± 9.1 µM; fold higher cytotoxic activity than noscapine (MCF-7 cells [2]; MCF-7, ratio of IC50): ~40 fold; Sub-G1 (MCF-7 cells [5]; 72 h): 49.6 ± 2.7%; percent sub-G1 cells compared with noscapine (MCF-7 cells [5]): higher
